The assay has as its system Propionibacterium acnes. The assay is described as follows: Sensitivity of peroxides versus dibenzoyl peroxide on Propionibacterium acnes: MIC, dilution method in agar medium (CLSI M11A7). The assay is classed as cell-based. To be noted: Cutibacterium acnes, 48 h.
[1] abbreviates: P. acnes strain 998, read after 48 hours anaerobic incubation.
[2] abbreviates: P. acnes strain 1044, read after 48 hours anaerobic incubation.
Where [3] appears, read: P. acnes strain 1045, read after 48 hours anaerobic incubation.
The mark [4] stands for this setting: P. acnes strain 1201, read after 48 hours anaerobic incubation.
The mark [5] stands for this setting: P. acnes strain 3069, read after 48 hours anaerobic incubation.
The mark [6] stands for this setting: P. acnes strain CSS 2913, read after 48 hours anaerobic incubation.
Where [7] appears, read: P. acnes strain CSS 2971, read after 48 hours anaerobic incubation.
The mark [8] stands for this setting: P. acnes strain CSS 3288, read after 48 hours anaerobic incubation.
[9] abbreviates: P. acnes strain UAA 2281, read after 48 hours anaerobic incubation.
Setting [10] is: P. acnes strain UAA 2285, read after 48 hours anaerobic incubation.

The values below come from patent US8901357B2, “Dibenzoyl peroxide derivatives, preparation method thereof and cosmetic or dermatological compositions containing same” (Galderma Research & Development, priority 2009, dated 2014).

As a reminder, the MIC is the lowest concentration that inhibits growth of the organism. High values mean a less susceptible organism, low ones a more susceptible organism.

Values after ≈ are worked out from the molar mass of the structure shown.

On to `CCCCCCCC(=O)c1ccc(OC(C)=O)c(C(=O)OOC(=O)c2ccccc2)c1` [Example 1, (2-acetoxy-5-octanoylbenzoyl)benzoyl peroxide], for which the MIC stood at 1280 µg/mL (≈ 3000 µM) under setting [1]; 320 µg/mL (≈ 750 µM) under setting [2]; 320 µg/mL (≈ 750 µM) under setting [3]; 320 µg/mL (≈ 750 µM) under setting [4]; 1280 µg/mL (≈ 3000 µM) under setting [5]; 320 µg/mL (≈ 750 µM) under setting [6]. In addition, the MIC is, setting by setting: under setting [7], 320 µg/mL (≈ 750 µM); under setting [8], 320 µg/mL (≈ 750 µM); under setting [9], 320 µg/mL (≈ 750 µM); under setting [10], 320 µg/mL (≈ 750 µM).
With `O=C(OOC(=O)c1ccccc1)c1ccccc1` [Benzoyl peroxide], the MIC by setting is: under setting [1], 640 µg/mL (≈ 2640 µM); under setting [2], 640 µg/mL (≈ 2640 µM); under setting [3], 640 µg/mL (≈ 2640 µM); under setting [4], 640 µg/mL (≈ 2640 µM); under setting [5], 640 µg/mL (≈ 2640 µM); under setting [6], 640 µg/mL (≈ 2640 µM). Moreover, the MIC stood at 640 µg/mL (≈ 2640 µM) under setting [7], 640 µg/mL (≈ 2640 µM) under setting [8], 640 µg/mL (≈ 2640 µM) under setting [9] and 640 µg/mL (≈ 2640 µM) under setting [10].
